Data reported in patent US6448052B2, “Carbonyl reductase enzyme and methods for its use” (Kaneka Corporation, priority 1997, dated 2002).

B1: CRD enzyme: carbonyl reductase purified from Candida magnoliae IFO 0705, amino acid sequence SEQ ID NO:1 (protein, listed as Candida magnoliae)
chain: MAKNFSNVEYPAPPPAHTKNESLQVLDLFKLNGKVASITGSSSGIGYALAEAFAQVGADVAIWYNSHDATGKAEALAKKYGVKVKAYKANVSSSDAVKQTIEQQIKDFGHLDIVVANAGIPWTKGAYIDQDDDKHFDQVVDVDLKGVGYVAKHAGRHFRERFEKEGKKGALVFTASMSGHIVNVPQFQATYNAAKAGVRHFAKSLAVEFAPFARVNSVSPGYINTEISDFVPQETQNKWWSLVPLGRGGETAELVGAYLFLASDAGSYATGTDIIVDGGYTLP

system: CRD enzyme; experiment: Substrate specificity of the purified CRD enzyme (decrease in NADPH absorption at 340 nm); format: biochemical, Candida magnoliae IFO 0705; settings: NADPH as coenzyme
Description: First, the above yeast is cultured in an appropriate medium, and microbe bodies are collected from the resultant culture by centrifugation. The microbe bodies are destroyed by Dyno mill (manufactured by Dyno-Mill), for example, and centrifuged to remove cell debris and thus obtain a cell-free extract. The cell-free extract is then subjected to a processing, such as salting-out (e.g., ammonium sulfate precipitation and sodium phosphate precipitation), solvent precipitation (a protein fractionation precipitation method using acetone, ethanol, or the like), dialysis, gel filtration, ion exchange, column chromatography such as a reverse phase chromatography, and ultrafiltration, alone or in combination, to purify the enzyme. The CRD enzyme activity can be determined by measuring a reduction in the absorption at 340 nm at 30° C., for a 100 mM phosphate buffer (pH 6.5) with 1 mM ethyl 4-chloroacetoacetate as a substrate, 0.1 mM NADPH as a coenzyme, and the enzyme added thereto, or a 200 mM phosphate buffer (pH 7.0) with 0.2 mM ethyl 4-chloroacetoacetate as a substrate and 0.32 mM NADPH as a coenzyme added thereto. Under these reaction conditions, oxidation of 1 μmol NADPH into NADP in one minute is defined as one unit of enzymatic activity.
The enzyme activity was determined by, basically, allowing 3 ml of a reaction solution including 0.2 mM ethyl 4-chloroacetoacetate as a substrate, 0.32 mM NADPH as a coenzyme, and 0.1 ml of an enzyme solution in a 200 mM phosphate buffer (pH 7.0) to react at 30° C. for one minute and measuring a reduction in the absorption at 340 nm.
The enzyme according to the present invention was reacted using various carbonyl compounds shown in Table 1 below as a substrate under the same conditions as those used for ethyl 4-chloroacetoacetate.

With CCOC(=O)CC(C)=O [Ethyl acetoacetate] the “substrate specificity (activity of the enzyme to the substrate, in words)” value was “substantially no activity”.
With CCOC(=O)CC(=O)CCl [ethyl 4-chloroacetoacetate] the “substrate specificity (activity of the enzyme to the substrate, in words)” value was “strong activity”.

same assay, conditions: Substrate 0.2 mM; 0.32 mM NADPH, 200 mM phosphate buffer pH 7.0, 30° C.; ethyl 4-chloroacetoacetate = 100

O=Cc1ccccc1 [Benzaldehyde] and O=Cc1cccc(Cl)c1 [m-chlorobenzaldehyde] are the same in “Relative activity (%)” value: 0% for the first, 0% for the second.

CC12CCC(C(=O)C1=O)C2(C)C (stereo not shown) [Camphor quinone] and O=Cc1cccc([N+](=O)[O-])c1 [m-nitrobenzaldehyde] are the same in “Relative activity (%)” value: 0% for the first, 0% for the second.

O=CCCl [Chloroacetoaldehyde] and O=CC=O [Glyoxal] are the same in “Relative activity (%)” value: 0% for the first, 0% for the second.

Going from CC(=O)C(C)=O [Diacetyl] to COC(=O)C(Cl)C(C)=O (stereo not shown) [methyl 2-chloroacetoacetate], the “Relative activity (%)” value falls from 19% to 11%.

Going from CCOC(=O)CC(C)=O [Ethyl acetoacetate] to CCOC(=O)CC(=O)CCl [ethyl 4-chloroacetoacetate], the “Relative activity (%)” value rises from 0% to 100%.

Compared with CC(=O)C=O [Methyl glyoxal], CCOC(=O)C(Cl)C(C)=O (stereo not shown) [ethyl 2-chloroacetoacetate] is higher in “Relative activity (%)” value: 0% for the first, 95% for the second.

O=Cc1cccnc1 [Nicotinaldehyde] and O=Cc1ccncc1 [isonicotinaldehyde] are the same in “Relative activity (%)” value: 0% for the first, 0% for the second.

Compared with COC(=O)CC(=O)CCl [methyl 4-chloroacetoacetate], CCCCCCCCOC(=O)CC(=O)CCl [octyl 4-chloroacetoacetate] is higher in “Relative activity (%)” value: 11% for the first, 36% for the second.

O=Cc1ccccc1Cl [o-chlorobenzaldehyde] and O=Cc1ccccc1[N+](=O)[O-] [o-nitrobenzaldehyde] are the same in “Relative activity (%)” value: 0% for the first, 0% for the second.

O=Cc1ccc(Cl)cc1 [p-chlorobenzaldehyde] and O=Cc1ccc([N+](=O)[O-])cc1 [p-nitrobenzaldehyde] are the same in “Relative activity (%)” value: 0% for the first, 0% for the second.

system: CRD enzyme; experiment: Organic solvent resistance of the CRD enzyme; format: biochemical, Candida magnoliae IFO 0705; settings: equivalent amount of solvent added to phosphate buffer (pH 7.0), shaken at 28° C. for 30 minutes

Compared with CCCCOC(C)=O [butyl acetate], CCOC(C)=O [ethyl acetate] is lower in “residual activity of the enzyme in the aqueous phase” value: 85% for the first, 72% for the second.

system: not given; experiment: not given; format: physicochemical, Candida magnoliae IFO 0705; settings: 0.5 h, pH 7
Description: The expression that an enzyme is “stable” as used herein means that after being processed at pH 7.0 at 40° C. for 30 minutes the enzyme sustains an activity of 90% or more of that before the processing.
After the enzyme according to the present invention was treated at pH 7.0at 40° C. for 30 minutes, the activity of the enzyme was measured using ethyl 4-chloroacetoacetate as a substrate. As a result, the activity of 90% of that before the treatment remained.

With B1 the “heat stability: activity remaining relative to before the treatment” value was 90%.

system: CRD enzyme; experiment: Effect of metal ions and inhibitors on CRD enzyme activity, ethyl 4-chloroacetoacetate as substrate; format: biochemical, Candida magnoliae IFO 0705; settings: not given

Going from [Cl-].[Cl-].[Co+2] [CoCl2] to O=C(O)CI [Iodoacetic acid], the “Relative activity (%)” value rises from 89% to 100%.

With [Cl][Hg][Cl] [HgCl2] the “inhibitor (enzyme inhibited, in words)” value was “inhibited”.
For O=c1c(O)c(-c2ccc(O)c(O)c2)oc2cc(O)cc(O)c12 [Quercetin], the “inhibitor (enzyme inhibited, in words)” value was “inhibited”.

same assay, conditions: Concentration of addition 0.01 mM; non-added = 100

In the case of O=c1c(O)c(-c2ccc(O)c(O)c2)oc2cc(O)cc(O)c12 [Quercetin], the “Relative activity (%)” value is reported as 84%.

same assay, conditions: Concentration of addition 0.05 mM; non-added = 100

In the case of O=C(O)c1cc(SSc2ccc([N+](=O)[O-])c(C(=O)O)c2)ccc1[N+](=O)[O-] [DTNB], the “Relative activity (%)” value is reported as 100%.

same assay, conditions: Concentration of addition 0.1 mM; non-added = 100

Compared with O=[N+]([O-])c1ccc(O)c([N+](=O)[O-])c1 [2,4-dinitrophenol], O=c1c(O)c(-c2ccc(O)c(O)c2)oc2cc(O)cc(O)c12 [Quercetin] is lower in “Relative activity (%)” value: 86% for the first, 0% for the second.

Compared with O=c1oc2ccccc2c(O)c1Cc1c(O)c2ccccc2oc1=O [Dicoumarol], [Cl][Hg][Cl] [HgCl2] is lower in “Relative activity (%)” value: 97% for the first, 49% for the second.

same assay, conditions: Concentration of addition 1 mM; non-added = 100

First: [Cl][Cd][Cl] [CdCl2]
Second: [Cl][Pb][Cl] [PbCl2]
The “Relative activity (%)” value of the first is higher: 91% for the first, 86% for the second.

First: O=S(=O)([O-])[O-].[Cu+2] [CuSO4]
Second: O=S(=O)([O-])[O-].[Zn+2] [ZnSO4]
The “Relative activity (%)” value of the first is lower: 85% for the first, 97% for the second.

Compared with O=C(O)CN(CCN(CC(=O)O)CC(=O)O)CC(=O)O [EDTA], O=C(O)c1cc[c]([Hg][Cl])cc1 [p-CMB] is lower in “Relative activity (%)” value: 95% for the first, 88% for the second.

Compared with [Cl-].[Cl-].[Mg+2] [MgCl2], CCN1C(=O)C=CC1=O [NEM] is higher in “Relative activity (%)” value: 83% for the first, 105% for the second.

Compared with O=S(=O)(F)Cc1ccccc1 [PMSF], NNc1ccccc1 [Phenylhydrazine] is higher in “Relative activity (%)” value: 93% for the first, 97% for the second.

For [Cl][Sn][Cl] [SnCl2], the “Relative activity (%)” value was 77%.
